According to patent US8258184B1, “Use of vegetable butter-based cetyl myristoleate for treating osteoarthritis and other musculoskeletal disease conditions and injuries” (Botanoceuticals, Inc., priority 2002, dated 2012):

How the values were obtained:
[1] = test system: severe arthritis caused by injuries in a horse; assay: Treatment of osteoarthritis caused by injuries in a horse (Example 3, case report); format: in vivo; conditions: 30-year-old mare, previous treatments given together
Description: Joint Response was tried as a last resort.

[2] = test system: arthritis in Swiss albino mice; conditions: cited from earlier work
[3] = test system: arthritis in laboratory rats exposed to Freund's adjuvant; conditions: cited from earlier work

Compound	alleviation of discomfort by previous treatments [1]	protection from arthritis [2]	protection from arthritis [3]
CCCCC1C(=O)N(c2ccccc2)N(c2ccccc2)C1=O [Butte]	not working nearly well enough	–	–
CCCC/C=C\CCCCCCCC(=O)OCCCCCCCCCCCCCCCC [CM, cetyl myristoleate]	–	protected	protected
N[C@H]1C(O)O[C@H](CO)[C@@H](O)[C@@H]1O (some centres unmarked) [Glucosamine, glucosamine]	not working nearly well enough	–	–
CS(C)(=O)=O [MSM, methylsulfonylmethane]	not working nearly well enough	–	–
